Patent publication US8168675B2, “Compositions and methods for treating neurodegenerative diseases” (Marin Bio Co., Ltd., priority 2008, dated 2012)

Key:
Type in all cases: in vivo
[1] = test system: C57BL/6 (B6) mice; assay: ABR hearing threshold measurement in aged mice (presbycusis model); conditions: dietary supplementation from 4 to 15 months of age, *P<0.05, n=5 vs Control
Experimental: (§1) Details on the methods used to house and feed male inbred C57BL/6 (B6) mice have been described (Pugh et al., Cancer Res. 59:1642 [1999]). Briefly, Mice were divided into five groups: control, α-lipoic acid (ALA), CLA, coenzyme Q10 (CQ), and phenylalanine (PA). The compound treatment groups were fed the same caloric intake as controls, but were supplemented with ALA (150 mg/kg), CLA (5000 mg/kg), CQ (50 mg/kg), and PA (250 mg/kg) from 4 months of age until 15 months of age (FIG. 1).
Detailed protocols for ABR measurement have been described (Yamasoba et al., Neurosci Lett. 395:18 [2005]). […] Mice were anesthetized with a mixture of xylazine hydrochloride (10 mg/kg, i.m.) and ketamine hydrochloride (40 mg/kg, i.m.). Five to seven mice per group were used for this study, and the same mice were used for the following histopathological analyses. Data were examined using the two-tailed standard t-test and were tested for statistical significance using a One Way ANOVA test (GraphPad Prisim 5.0, San Diego, Calif.). All data were reported as mean±S.E.M.

[2] = test system: C57BL/6 (B6) mice; assay: Spiral ganglion cell counting (SGC density); conditions: dietary supplementation from 4 to 15 months of age, *P<0.05, n=5
Experimental: as §1
SGCs were identified by the presence of a nucleus. The SGC density was calculated as the number of SGCs per 1 mm^2. Five sections of the unilateral apical turn were evaluated in one cochlea per mouse. Data were analyzed using the two-tailed standard t-test. All data were reported as mean±S.E.M.

[3] = test system: C57BL/6 (B6) mice; assay: Cochlear histopathology (hair cells and SGCs); conditions: dietary supplementation from 4 to 15 months of age, HE-stained cochlear sections, Control showed severe loss
Experimental: as §1
Detailed protocols for tissue processing have been described (Someya et al., [2007], supra). Briefly, 4% paraformaldehyde-fixed and paraffin-embedded specimens were sliced into 4 μm sections, mounted on silane-coated slides, stained with Haematoxylin and Eosin (HE), and observed under a light microscope (Leica Microsystems, Bannockburn, Ill.). The Rosenthal's canal was divided into three regions: apical, middle and basal (Keithley et al., [2004], supra) and the three regions were used for evaluation of cochlear histopathology. Five mice were used for each group that were the same mice as those used in the ABR tests. Five modiolar sections obtained in every fifth section from one unilateral cochlea were evaluated per mouse. The same animals were used for spiral ganglion cell counting.

Compound | hearing by ABR thresholds at 32 kHz [1] | mean spiral ganglion cell density vs Control mice [2] | loss of hair cells and SGCs in the cochleae [3] | hearing by ABR thresholds at 8 and 32 kHz ([1]; 8 and 32 kHz)
O=C(O)CCCCC1CCSS1 (stereo not drawn) [ALA, α-lipoic acid] | normal hearing | significantly higher | no or only a few loss | –
COC1=C(OC)C(=O)C(C/C=C(\C)CC/C=C(\C)CC/C=C(\C)CC/C=C(\C)CC/C=C(\C)CC/C=C(\C)CC/C=C(\C)CC/C=C(\C)CC/C=C(\C)CCC=C(C)C)=C(C)C1=O [CQ, coenzyme Q10] | – | significantly higher | no or only a few loss | normal hearing
N[C@@H](Cc1ccccc1)C(=O)O [PA, phenylalanine] | normal hearing | significantly higher | no or only a few loss | –
conjugated linoleic acid [CLA] | normal hearing | – | – | –
